Measured values taken from patent publication US8772323B2, “Benzoxazole- and tetrahydrobenzoxazole-substituted pyridazinones as GPR119 agonists” (Boehringer Ingelheim International GmbH, priority 2010, dated 2014).
pEC50: −log10 of the molar value. Structures can show the parent of a compound that is named as a salt.

Target: human GPR119 (Homo sapiens (Human), UniProt Q8TDV5)
Assay: AlphaScreen cAMP assay in Min-6/hGPR119 cells (GPR119 activation, intracellular cAMP)
Format: cell-based
Settings: MIN6 cells stably transfected with human GPR119; 45 minutes' incubation at RT; AlphaScreen cAMP Assay Kit
Description: The compounds of formula I according to the invention are GPR119 agonists. The effect of the compounds on the activation of GPR119 and on the stimulation of intracellular cAMP concentration is determined using the AlphaScreen cAMP Assay Kit (Cat. No. #6760625R) made by PerkinElmer.
MIN6 cells [Miyazaki J et al. Endocrinology. 1990 July; 127(1):126-32] were stably transfected with an expression vector for human GPR119 cDNA (Acc. No. NP_848566). Min-6/hGPR119 cells are cultured in DMEM, 10% FBS, 50 μM β-mercaptoethanol, 0.3 mg/mL Geniticin, 2 mM GlutaMAX at 37° C. 5% CO2. For the assay, the cells are placed in Optiplates (white, 384-well, 160W-barcoded, TC, sterile with lid, Cat. No. #6007688 (Perkin Elmer); 10000 cells/well; 50 μl). The plates covered with lids are then incubated for 24 hours at 37° C./5% CO2.
After the medium has been sucked out of the wells completely, 10 μl of the test compound are added, the compounds are diluted beforehand with stimulating buffer (140 mM NaCl, 3.6 mM KCl, 0.5 mM NaH2PO4, 0.5 mM MgSO4, 1.5 mM CaCl2, 10 mM Hepes, 5 mM NaHCO3; pH 7.4. 0.5 mM IBMX and 0.1% BSA, the final DMSO concentration is 1%). After 45 minutes' incubation at RT, the cAMP concentrations are determined using the AlphaScreen cAMP Assay Kit (Cat. No. #6760625R from PerkinElmer).

Chain of human GPR119 (Q8TDV5 whole entry): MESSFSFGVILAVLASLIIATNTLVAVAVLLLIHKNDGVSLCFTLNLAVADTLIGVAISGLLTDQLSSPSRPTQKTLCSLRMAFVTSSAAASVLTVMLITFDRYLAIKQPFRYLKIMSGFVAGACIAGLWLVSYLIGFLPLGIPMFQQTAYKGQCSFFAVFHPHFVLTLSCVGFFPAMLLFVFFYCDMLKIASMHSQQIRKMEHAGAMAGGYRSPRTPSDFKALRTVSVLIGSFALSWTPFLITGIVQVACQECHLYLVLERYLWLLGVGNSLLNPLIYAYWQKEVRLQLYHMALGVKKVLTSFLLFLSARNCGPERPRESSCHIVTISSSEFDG

| SMILES | pEC50 |
| --- | --- |
| CCC[C@@H]1C(=O)NN=C(c2ccc3nc(-c4ccc(OCc5ccccc5)cc4)oc3c2)[C@H]1C (relative stereo) [Example 200, trans-6-[2-(4-benzoxy-phenyl)-benzoxazol-6-yl]-5-methyl-4-propyl-4,5-dihydro-2H-pyridazin-3-one] | 7.28 |
| CC[C@H]1CC(=O)NN=C1c1ccc2nc(-c3ccc(OCC(C)N4CCCCC4)cc3)oc2c1 (stereo partly drawn) [Example 236, 5(S)-ethyl-6-{2-[4-(2-piperidin-1-yl-propoxy)-phenyl]-benzoxazol-6-yl}-4,5-dihydro-2H-pyridazin-3-one] | 5.96 |
| CCC1CC(=O)NN=C1c1ccc2nc(-c3ccc(OCCCN4CCCCC4)cc3)oc2c1 (stereo not drawn) [Example 161, 5-ethyl-6-{2-[4-(3-piperidin-1-yl-propoxy)-phenyl]-benzoxazol-6-yl}-4,5-dihydro-2H-pyridazin-3-one x HCl] | 6.53 |
| CCC1CC(=O)NN=C1c1ccc2nc(-c3ccc(OCCN4CCCC4)cc3)oc2c1 (stereo not drawn) [Example 159, 5-ethyl-6-{2-[4-(2-pyrrolidin-1-yl-ethoxy)-phenyl]-benzoxazol-6-yl}-4.5-dihydro-2H-pyridazin-3-one] | 6.21 |
| CCC1CC(=O)NN=C1c1ccc2nc(-c3ccc(OCC(C)N4CCCC4)cc3)oc2c1 (stereo not drawn) [Example 209, 5-ethyl-6-{2-[4-(2-pyrrolidin-1-yl-propoxy)-phenyl]-benzoxazol-6-yl}-4,5-dihydro-2H-pyridazin-3-one] | 6.51 |
| O=C1CC(C2CC2)C(N2CCc3nc(-c4ccccc4)oc3C2)=NN1 (stereo not drawn) [Example 138, 5-cyclopropyl-6-(2-phenyl-6,7-dihydro-4H-oxazolo[5,4-c]pyridin-5-yl)-4,5-dihydro-2H-pyridazin-3-one] | 5.88 |
| CCC1CC(=O)NN=C1c1ccc2nc(-c3ccc(OCCN4CCN(C(C)=O)CC4)cc3)oc2c1 (stereo not drawn) [Example 162, 6-(2-{4-[2-(4-acetyl-piperazin-1-yl)-ethoxy]-phenyl}-benzoxazol-6-yl)-5-ethyl-4,5-dihydro-2H-pyridazin-3-one] | 5.04 |
| CCC1CC(=O)NN=C1c1ccc2nc(-c3ccc(OC(C)CN4CCOCC4)cc3)oc2c1 (stereo not drawn) [Example 221, 5-ethyl-6-{2-[4-(1-methyl-2-morpholin-4-yl-ethoxy)-phenyl]-benzoxazol-6-yl}-4,5-dihydro-2H-pyridazin-3-one] | 6.69 |
| CCC1CC(=O)NN=C1c1ccc2nc(-c3ccc(OCCN4CCN(C(=O)OC(C)(C)C)CC4)cc3)oc2c1 (stereo not drawn) [Example 165, terl-butyl 4-(2-{4-[6-(4-ethyl-6-oxo-1,4,5,6-tetrahydro-pyridazin-3-yl)-benzoxazol-2-yl]-phenoxy}-ethyl)-piperazine-1-carboxylate] | 6.93 |
| CCC1CC(=O)NN=C1c1ccc2nc(-c3ccc(OC(C)(C)CN4CCOCC4)cc3)oc2c1 (stereo not drawn) [Example 231, 6-{2-[4-(1,1-dimethyl-2-morpholin-4-yl-ethoxy)-phenyl]-benzoxazol-6-yl}-5-ethyl-4,5-dihydro-2H-pyridazin-3-one] | 6.92 |
| CCC[C@@H]1C(=O)NN=C(c2ccc3nc(-c4ccc(OCCN5C[C@@H](C)O[C@@H](C)C5)cc4)oc3c2)[C@H]1C [Example 223, Trans-6-(2-{4-[2-(2S,6R-dimethyl-morphoin-4-yl)-ethoxy]-phenyl}-benzoxazol-6-yl)-5-methyl-4-propyl-4,5-dihydro-2H-pyridazin-3-one] | 7.34 |
| CC[C@@H]1CC(=O)NN=C1N1CCc2nc(-c3ccccc3)oc2C1 [Example 202, (5R)-5-ethyl-6-{2-phenyl-4H,5H,6H,7H-pyrido[4.3-d][1.3]oxazol-5-yl}-2,3,4,5-tetrahydropyridazin-3-one] | 6.88 |
| O=C1NN=C(C2CCc3nc(-c4ccccc4)oc3C2)C2CC12 (stereo not drawn) [Example 130, 5-(2-phenyl-4,5,6,7-tetrahydro-benzoxazol-6-yl)-3,4-diaza-bicyclo[4.1.0]hept-4-en-2-one] | 6.09 |
| O=C1NN=C([C@H]2CCc3nc(-c4ccccc4)oc3C2)[C@@H]2C[C@H]12 [Example 133, (1S,6R)-5-((S)-2-phenyl-4,5,6,7-tetrahydro-benzoxazol-6-yl)-3,4-diaza-bicyclo[4.1.0]hept-4-en-2-one] | 6.52 |
| CCC1CC(=O)NN=C1c1ccc2nc(-c3cccc(OCCN4CCN(C(=O)OC(C)(C)C)CC4)c3)oc2c1 (stereo not drawn) [Example 155, tert-butyl 4-(2-{3-[6-(4-ethyl-6-oxo-1,4,5,6-tetrahydro-pyridazin-3-yl)-benzoxazol-2-yl]-phenoxy}-ethyl)-piperazine-1-carboxylate] | 5.11 |

Other lines, results leading:

| pEC50 | SMILES |
| --- | --- |
| 6.44 | O=C1NN=C(c2ccc3nc(-c4ccccc4)oc3c2)C2CCC12 (stereo not drawn) [Example 10, 5-(2-phenyl-benzoxazol-6-yl)-3,4-diaza-bicyclo[4.2.0]oct-4-en-2-one] |
| 5.17 | CC1CC(=O)NN=C1c1ccc2nc(-c3cccc(OCC4CCNCC4)c3)oc2c1 (stereo not drawn) [Example 73, 5-methyl-6-{2-[3-(piperidin-4-ylmethoxy)-phenyl]-benzoxazol-6-yl}-4,5-dihydro-2H-pyridazin-3-one hydrochloride] |
| 6.90 | CCC[C@H]1C(=O)NN=C(c2ccc3nc(-c4cc(C)oc4C)oc3c2)[C@@H]1C (relative stereo) [Example 189, trans-6-[2-(2,5-dimethyl-furan-3-yl)-benzoxazol-6-yl]-5-methyl-4-propyl-4,5-dihydro-2H-pyridazin-3-one] |
| 6.21 | CCC1OC(=O)NN=C1c1ccc2nc(-c3ccccc3)oc2c1 (stereo in doubt) [Example 80, (R)-6-ethyl-5-(2-phenyl-benzoxazol-6-yl)-3,6-dihydro-[1,3,4]oxadiazin-2-one] |
| 5.63 | C[C@@H]1C(c2ccc3nc(-c4ccccc4)oc3c2)=NNC(=O)[C@@H]1C [Example 25, (4R,5S)-4,5-dimethyl-6-(2-phenyl-benzoxazol-6-yl)-4,5-dihydro-2H-pyridazin-3-one] |
| 6.09 | CCC1CC(=O)NN=C1c1ccc2nc(-c3cccc(OCc4cccnc4)c3)oc2c1 (stereo not drawn) [Example 45, 5-ethyl-6-{2-[3-(pyridin-3-ylmethoxy)-phenyl]-benzoxazol-6-yl}-4,5-dihydro-2H-pyridazin-3-one] |
| 7.23 | CCC1CC(=O)NN=C1c1ccc2nc(-c3ccc(OC(C)C)cc3)oc2c1 (stereo not drawn) [Example 99, 5-ethyl-6-[2-(4-isopropoxy-phenyl)-benzoxazol-6-yl]-4,5-dihydro-2H-pyridazin-3-one] |
| 6.59 | CC1CC(=O)NN=C1c1ccc2nc(-c3cccc(Cl)c3)oc2c1 (stereo not drawn) [Example 88, 6-[2-(3-chloro-phenyl)-benzoxazol-6-yl]-5-methyl-4,5-dihydro-2H-pyridazin-3-one] |
| 7.10 | CC[C@@H]1CC(=O)NN=C1c1ccc2nc(-c3ccc(OC)cc3)oc2c1 [Example 190, (5R)-5-ethyl-6-[2-(4-methoxyphenyl)-1,3-benzoxazol-6-yl]-2,3,4,5-tetrahydropyridazin-3-one] |
| 6.37 | CCC1CC(=O)NN=C1c1ccc2nc(-c3cccc(OCCN(C(C)C)C(C)C)c3)oc2c1 (stereo not drawn) [Example 154, 6-{2-[3-(2-diisopropylamino-ethoxy)-phenyl]-benzoxazol-6-yl}-5-ethyl-4,5-dihydro-2H-pyridazin-3-one] |
| 6.05 | C=CC[C@H]1C(=O)NN=C(c2ccc3nc(-c4ccccc4)oc3c2)[C@H]1C (relative stereo) [Example 198, cis-4-allyl-5-methyl-6-(2-phenyl-benzoxazol-6-yl)-4,5-dihydro-2H-pyridazin-3-one] |
| 6.85 | CCC1CC(=O)NN=C1c1ccc2nc(-c3ccc(OC)cc3F)oc2c1 (stereo not drawn) [Example 91, 5-ethyl-6-[2-(2-fluoro-4-methoxy-phenyl)-benzoxazol-6-yl]-4,5-dihydro-2H-pyridazin-3-one] |
| 5.90 | CCC1CC(=O)NN=C1c1ccc2nc(-c3cccc(OCc4ccncc4)c3)oc2c1 (stereo not drawn) [Example 150, 5-ethyl-6-{2-[3-(pyridin-4-ylmethoxy)-phenyl]-benzoxazol-6-yl}-4,5-dihydro-2H-pyridazin-3-one] |
| 6.58 | Cc1ccc(-c2nc3ccc(C4=NNC(=O)C5CC45)cc3o2)cc1C (stereo not drawn) [Example 14, 5-[2-(3,4-dimethyl-phenyl)-benzoxazol-6-yl]-3,4-diaza-bicyclo[4.1.0]hept-4-en-2-one] |
| 7.18 | CC[C@@H]1CC(=O)NN=C1c1ccc2nc(-c3ccccc3)oc2c1 [Example 31, (R)-5-ethyl-6-(2-phenyl-benzoxazol-6-yl)-4,5-dihydro-2H-pyridazin-3-one] |
| 6.71 | CCC1CC(=O)NN=C1c1ccc2nc(-c3ccc(C)s3)oc2c1 (stereo not drawn) [Example 101, 5-ethyl-6-[2-(5-methyl-thiophen-2-yl)-benzoxazol-6-yl]-4,5-dihydro-2H-pyridazin-3-one] |
| 6.37 | CCC1CC(=O)NN=C1c1ccc2nc(-c3cccc(OCc4ccccn4)c3)oc2c1 (stereo not drawn) [Example 65, 5-ethyl-6-{2-[3-(pyridin-2-ylmethoxy)-phenyl]-benzoxazol-6-yl}-4,5-dihydro-2H-pyridazin-3-one] |
| 7.00 | Cc1ccc(-c2nc3ccc(C4=NNC(=O)CC4C)cc3o2)s1 (stereo not drawn) [Example 87, 5-methyl-6-[2-(5-methyl-thiophen-2-yl)-benzoxazol-6-yl]-4,5-dihydro-2H-pyridazin-3-one] |
